Measurements: publication PMC11997989, “Design of Novel Mercapto-3-phenylpropanoyl Dipeptides as Dual Angiotensin-Converting Enzyme C–Domain-Selective/Neprilysin Inhibitors” (Journal of Medicinal Chemistry, 2025)

Legend:
human NEP ectodomain [1] = biological target: T1, human NEP ectodomain (Homo sapiens, UniProt P08473); assay: NEP inhibition assay (continuous fluorogenic activity assay); format: biochemical; conditions: for IC50: 0.4 nM NEP, mean ± standard error, n ≥ 2
T1 construct: A purified human NEP ectodomain was used in continuous activity assays; made in house
T1 sequence (P08473 52-750 limits assumed): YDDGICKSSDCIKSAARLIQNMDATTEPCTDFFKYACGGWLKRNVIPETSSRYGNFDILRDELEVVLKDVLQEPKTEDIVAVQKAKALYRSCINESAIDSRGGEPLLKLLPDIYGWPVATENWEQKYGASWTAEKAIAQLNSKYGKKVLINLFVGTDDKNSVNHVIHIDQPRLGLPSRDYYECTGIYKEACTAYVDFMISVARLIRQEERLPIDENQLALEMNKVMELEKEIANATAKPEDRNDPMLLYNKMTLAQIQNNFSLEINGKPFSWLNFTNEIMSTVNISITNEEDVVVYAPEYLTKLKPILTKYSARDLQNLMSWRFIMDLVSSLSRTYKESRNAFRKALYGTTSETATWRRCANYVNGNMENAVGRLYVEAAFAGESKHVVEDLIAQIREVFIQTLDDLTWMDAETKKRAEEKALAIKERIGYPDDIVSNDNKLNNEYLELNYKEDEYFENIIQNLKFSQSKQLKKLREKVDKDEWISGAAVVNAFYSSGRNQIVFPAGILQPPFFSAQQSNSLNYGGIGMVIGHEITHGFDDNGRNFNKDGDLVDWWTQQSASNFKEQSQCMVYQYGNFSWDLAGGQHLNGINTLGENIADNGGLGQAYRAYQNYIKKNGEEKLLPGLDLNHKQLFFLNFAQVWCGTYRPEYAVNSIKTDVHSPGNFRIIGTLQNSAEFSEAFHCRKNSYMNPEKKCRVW
Source text: Furthermore, while comparing Ki values (assuming they can be accurately determined in vitro using available kinetic models) provides information on the relative binding affinities in the absence of substrate, in vivo the extent of enzyme inhibition will be affected by the relative concentrations and affinities of the physiological substrates competing for the binding sites.

nACE [2] = biological target: T2, nACE (Homo sapiens, UniProt P12821); assay: ACE inhibition assay, nACE (fluorogenic end point, Z-FHL); format: biochemical; conditions: for reduction in affinity for nACE compared to omapatrilat: factor, from IC50 values; for IC50: ~1 nM nACE, 0.5 mM Z-FHL, mean ± standard error, n ≥ 2
T2 construct: using purified recombinant single domain human ACE proteins and the human NEP ectodomain as previously described; made in house
T2 sequence (P12821 40-624 limits assumed): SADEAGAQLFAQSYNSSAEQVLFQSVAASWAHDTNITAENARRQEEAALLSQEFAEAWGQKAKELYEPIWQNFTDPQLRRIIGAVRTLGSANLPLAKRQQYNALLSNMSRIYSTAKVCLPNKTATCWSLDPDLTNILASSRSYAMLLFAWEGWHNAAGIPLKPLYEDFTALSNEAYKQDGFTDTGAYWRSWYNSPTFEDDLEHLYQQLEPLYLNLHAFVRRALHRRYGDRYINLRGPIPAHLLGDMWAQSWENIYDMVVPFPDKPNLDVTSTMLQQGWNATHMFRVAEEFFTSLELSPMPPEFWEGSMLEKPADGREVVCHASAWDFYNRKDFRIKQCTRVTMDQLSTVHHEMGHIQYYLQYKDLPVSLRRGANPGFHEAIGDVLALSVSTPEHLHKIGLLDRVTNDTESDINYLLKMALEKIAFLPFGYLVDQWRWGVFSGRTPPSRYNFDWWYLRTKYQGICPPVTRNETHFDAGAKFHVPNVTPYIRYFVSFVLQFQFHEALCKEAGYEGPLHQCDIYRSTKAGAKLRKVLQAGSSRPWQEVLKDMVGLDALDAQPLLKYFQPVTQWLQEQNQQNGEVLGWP
Source text: (§1) For an accurate comparison of the inhibitor potencies across different enzymes and substrates, it is preferable to determine inhibition constants (Ki values). […] In the case of these new analogues, it was more challenging to accurately determine Ki values that could reliably be used to determine selectivity. […] This highlights the challenges in extrapolating data from in vitro assays to predict in vivo selectivity between targets. Furthermore, while comparing Ki values (assuming they can be accurately determined in vitro using available kinetic models) provides information on the relative binding affinities in the absence of substrate, in vivo the extent of enzyme inhibition will be affected by the relative concentrations and affinities of the physiological substrates competing for the binding sites. Given that accurate Ki values could not be calculated in a consistent manner for all compound-enzyme combinations, IC50 values are reported (Table 1).
(§2) Purified fully glycosylated human cACE and nACE proteins[36],[37] were used in fluorogenic end point activity assays utilizing Cbz-Phe-His-Leu (Z-FHL, Bachem Ltd., nACE Km = 600 μM; cACE Km = 60 μM) as the substrate as previously described.[32] Final reactions contained ∼1 nM nACE/cACE and 0.5 mM Z-FHL.

cACE [3] = biological target: T3, cACE (Homo sapiens, UniProt P12821); assay: ACE inhibition assay, cACE (fluorogenic end point, Z-FHL); format: biochemical; conditions: for C-selectivity factor: nACE IC50/cACE IC50; for IC50: ~1 nM cACE, 0.5 mM Z-FHL, mean ± standard error, n ≥ 2
T3 construct: using purified recombinant single domain human ACE proteins and the human NEP ectodomain as previously described; made in house
T3 sequence (P12821 643-1222 limits assumed): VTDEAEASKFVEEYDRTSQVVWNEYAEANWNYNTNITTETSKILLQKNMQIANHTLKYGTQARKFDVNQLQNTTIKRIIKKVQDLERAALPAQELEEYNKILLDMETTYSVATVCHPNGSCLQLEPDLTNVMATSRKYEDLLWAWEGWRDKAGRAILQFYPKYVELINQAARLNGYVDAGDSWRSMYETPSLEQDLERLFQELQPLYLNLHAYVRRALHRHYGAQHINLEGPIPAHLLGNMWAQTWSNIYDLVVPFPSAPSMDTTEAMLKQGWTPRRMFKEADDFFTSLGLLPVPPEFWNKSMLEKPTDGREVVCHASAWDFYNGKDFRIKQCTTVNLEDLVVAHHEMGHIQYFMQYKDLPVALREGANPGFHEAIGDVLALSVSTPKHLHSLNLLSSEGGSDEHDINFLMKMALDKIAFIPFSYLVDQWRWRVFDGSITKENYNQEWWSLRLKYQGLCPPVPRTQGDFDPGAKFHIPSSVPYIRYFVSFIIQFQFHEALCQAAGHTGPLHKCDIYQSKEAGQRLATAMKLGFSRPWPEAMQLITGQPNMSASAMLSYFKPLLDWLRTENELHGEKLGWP
Source text: as §1, §2

nACE [4] = biological target: T2, nACE; assay: Michaelis-Menten inhibition kinetics (mode of inhibition), nACE; format: biochemical; conditions: enzyme and inhibitor pre-incubated 15 min; best-fitting model
Experimental: (§3) page 9: curve. […] The apparent […]) obtained from this equation can then be converted to K i as for an IC50 value using Equation 1 provided the substrate competes with the inhibitor for the active site. (Et [[…] = V0(1 - i i ) Eq 2 2Et Where Vo is activity in absence of inhibitor, Vi is activity in presence of inhibitor, [I] is inhibitor concentration and Et is total enzyme concentration. Due to the slow binding of many protease inhibitors, inhibitors are typically pre-incubated with the enzyme prior to the addition of substrate to ensure that inhibition constants are measured under steady-state conditions. Accordingly, if an inhibitor forms a very tight complex with the enzyme resulting in a very slow off-rate, the inhibitor may not dissociate in the time of the experiment. Determining the Ki values for the mercaptoacyl inhibitors was challenging due to the chemical instability of the thiol group (although this was controlled by making up fresh stock before each experiment and diluting them immediately), the high potency, and the slow off rates observed in some cases, particularly for cACE. […] This is exemplified by the data for AD016. […] The K i values for the cACE determined in from this model were also inconsistent and were influence by the amount of enzyme used to the assay, again indicative of tight-binding conditions (Figure S1 C and D). […]

cACE [5] = biological target: T3, cACE; assay: Michaelis-Menten inhibition kinetics (mode of inhibition), cACE; format: biochemical; conditions: enzyme and inhibitor pre-incubated 15 min; best-fitting model
Experimental: as §3

NEP = biological target: T4, NEP (Homo sapiens, UniProt P08473); assay: Michaelis-Menten inhibition kinetics (mode of inhibition), NEP; format: biochemical; conditions: enzyme and inhibitor pre-incubated 15 min; best-fitting model
T4 construct: A purified human NEP ectodomain was used in continuous activity assays; made in house
T4 sequence (P08473 52-750 limits assumed): as the sequence (P08473 52-750 limits assumed) above

cACE [6] = biological target: T3, cACE; assay: Jump dilution assay, cACE; format: biochemical; conditions: 15 min pre-incubation, 20-fold dilution, activity immediately and ~3 h later, 1 mM Z-FHL
Experimental: (§4) Figure S2: Jump dilution experiment forAD016. A) Enzyme and inhibitor were pre-incubated for 15 min and then an aliquot of each was removed and diluted 20-fold in assay buffer. Activity assays were performed on both the undiluted (A and C) and diluted (B and D) enzyme-inhibitor mixes immediately and ~3h. later. Reaction was initiated with Z-FHL substrate (1mM final concentration). Final enzyme and inhibitor concentrations are […]
(§5) The Morrison equation was fitted to the same data but gave a poor fit when Et was constrained to the enzyme concentration used in the assay and an unrealistic Et if this value was left unconstrained (Figure S3 C & D). The obvious explanation for the high Et predicted by the model is that the inhibitor concentration is much lower than […]
(§6) the nACE data would imply the inhibitor concentration is ~350-fold lower than expected while the cACE data implies it is 40-fold lower than expected. The same inhibitor dilution series was […]
(§7) (1 picture or pasted object on this page, not shown here)
(§8) Figure S4: Morrison plots for the inhibition of cACE by compound AD016. Two assays with carried out in parallel. One using 1nM final enzyme concentration and the other using 5-fold less (0.2nM). The model was fitted without constraining the Et. The Et predicted from data set using the Morrison equation is indicated on the graph. […]

nACE [7] = biological target: T2, nACE; assay: Jump dilution assay, nACE; format: biochemical; conditions: 15 min pre-incubation, 20-fold dilution, activity immediately and ~3 h later, 1 mM Z-FHL
Experimental: as §4, §5, §6, §7, §8

human NEP ectodomain [8] = biological target: T1, human NEP ectodomain; design: method as in PMID 35113565; conditions: stated in discussion, LisW data previously reported; cited from earlier work
patients = conditions: OCTAVE study, higher than the ACE inhibitor enalapril; cited from earlier work
[9] = 5 μM MCA-RPPGFSAFK(Dnp)-OH substrate

Row | SMILES | IC50 (human NEP ectodomain [1]; [9]) | reduction in affinity for nACE compared to omapatrilat (nACE [2]) | IC50 (nACE [2]) | C-selectivity factor (cACE [3]) | IC50 (cACE [3]) | also measured
1 | O=C(NCC(=O)N1[C@@H](c2cccc(O)c2)CC[C@H]1C(=O)O)[C@@H](S)Cc1ccc(O)cc1 [AD014, (2S,5R)-5-(3-Hydroxyphenyl)-1-(((S)-3-(4-hydroxyphenyl)-2-mercaptopropanoyl)glycyl)pyrrolidine-2-carboxylic Acid] | 20 ± 10 nM | ~10 | 20 ± 7 nM | 2 | – | reduction in affinity for cACE compared to omapatrilat (cACE [3]; factor, from IC50 values): ~10
2 | Cc1ccc([C@H]2CC[C@@H](C(=O)O)N2C(=O)CNC(=O)[C@@H](S)Cc2ccccc2)cc1 [AD015, (2S,5R)-1-(((S)-2-Mercapto-3-phenylpropanoyl)glycyl)-5-(p-tolyl)pyrrolidine-2-carboxylic Acid] | 9 ± 3 nM | 10 | 19 ± 1 nM | – | 0.8 ± 0.2 nM | selectivity for NEP over nACE (human NEP ectodomain [1]; from IC50 values): 2 fold
3 | NCCCC[C@H](NC(=O)[C@@H](S)Cc1ccccc1)C(=O)N[C@@H](Cc1c[nH]c2ccccc12)C(=O)O [AD016, ((S)-2-Mercapto-3-phenylpropanoyl)-L-lysyl-L-tryptophan] | 1200 ± 200 nM | – | 150 ± 20 nM | 21 | – | IC50 (human NEP ectodomain [1]; 5 μM MCA-[…](Dnp)-OH substrate): 1000 nM; improved NEP inhibitory activity compared to LisW (human NEP ectodomain [1]; ratio of NEP IC50 values, LisW vs compound): over 200 fold; mode of inhibition of nACE (nACE [4]): competitive inhibition; mode of inhibition of cACE (cACE [5]): non-competitive; mode of inhibition of NEP (NEP): competitive inhibition; dissociation from cACE on jump dilution (cACE [6]): remains tightly bound; dissociation from nACE on jump dilution (nACE [7]): dissociates from nACE when diluted
4 | NCCCC[C@H](N[C@@H](CCc1ccccc1)C(=O)O)C(=O)N[C@@H](Cc1c[nH]c2ccccc12)C(=O)O [LisW, Lisinopril-tryptophan] | – | – | – | – | – | Ki (human NEP ectodomain [8]): > 150000 nM
5 | O=C(N[C@H]1CCS[C@H]2CCC[C@@H](C(=O)O)N2C1=O)[C@@H](S)Cc1ccccc1 [Omapatrilat, reference compound] | 10 nM | – | 2 ± 0.1 nM | – | 1 ± 0.1 nM | incidence of angioedema relative to enalapril (patients): 3 fold
